Laboratory results reported in patent publication US11814371B2, “Heterocyclic compound” (MEDSHINE DISCOVERY INC., priority 2020, dated 2023).

Key:
[1] = test system: rat DME model induced by CA-1 (100 ng); assay: In vivo pharmacodynamic study on rat DME model induced by CA-1 (retinal thickness by OCT); parameters: species or system male SD rats
Method: 20 rats were selected from 25 male SD rats and divided into 5 groups according to their body weight, with 4 rats in each group and 1 spare rat in each group, and all the animals were examined by optical coherence tomography before modeling, 48 hours and 72 hours after modeling, respectively. The appropriate scanning position for measurement was selected and the retinal thickness was marked. Through the changes of retinal thickness in each group, the effects of the test compounds on improving retinal edema were compared, and the active compounds were screened. The above experimental operations of modeling and inspection should follow the order of the right eye first and then the left eye.
• Species: Rat • Strain: SD rat, SPF grade • Age and weight: 7-8 weeks old, weighing 250-300 g • Sex: Male • Supplier: Zhejiang Vital River Laboratory Animal Technology Co., Ltd. • Animal certificate number: • 2.2 Molding agent • Carbonic anhydrase-1 (CA-1, Sigma) • 3. Experimental methods and procedures • 3.1 Administration and modeling
On the day of modeling, all animals were first administered the vehicle or the test compound orally, and about 4 hours later, the animals were injected with physiological saline (5 µL/eye) or CA-I (100 ng/eye) into the vitreous cavity of both eyes for modeling, and the end time of injection in the second eye was recorded as 0 hour, and the vehicle (10 % DMSO + 90 % labrasol) or the test compound was administered orally to all animals at 4±0.5 hours, 20±0.5 hours, 28±0.5 hours, 44±0.5 hours, 52±0.5 hours and 68±0.5 hours after modeling, respectively.
Before modeling, 48 hours and 72 hours after modeling, animals were first anesthetized, and then examined by optical coherence tomography (OCT), and before anesthesia, appropriate mydriatic agents were used to ensure that the pupils of animals were completely dilated, and the animals were anesthetized by a combination of intramuscular injection of Zoletil (5 mg/kg) and Xylazine solution (3 mg/kg). OCT inspection requirements are as follows: • 1) The optic disc should be placed in the center of the infrared fundus image during data collection; • 2) the retinal scan was performed in a “pozidriv” type, with the crossover point over the optic disc, and the retina was scanned at the widest length. • 3) The software tracking function was used as much as possible for comparison of retinal thickness before and after administration, and if the tracking function was not available, the eye position was adjusted as much as possible to be consistent with that before administration, and the clarity of the tomographic images was ensured as much as possible to facilitate comparison of retinal thickness before and after administration.

[2] = Pharmacokinetic test in rat eyes after intragastric administration (eye tissue and plasma, LC-MS/MS); type: in vivo, male SD rats; conditions: intragastric 75 mg/kg
Method: Male SD rats were used as test animals, and LC-MS/MS method was used to determine the drug concentrations in eye tissues at different times after intragastric administration of the test compound. The pharmacokinetic behavior of the compounds in the eyes of rats after intragastric administration was studied, and the pharmacokinetic characteristics were evaluated.
2.2 Test animals: Six healthy adult male rats were divided into three groups with 4 eyes in each group. Animals were purchased from Beijing Vital River Laboratory Animal Technology Co., Ltd.
2.3 Drug preparation: An appropriate amount of sample was weighed, and an appropriate amount of DMSO and labrasol were added in sequence according to the volume ratio of 10:90, then the mixture was stirred and sonicated to reach a clear state of 15 mg/mL for intragastric administration.
2.4 Administration: 6 male SD rats were divided into 3 groups, after fasting for one night, the intragastric administration group was administered with a volume of 5 mL/kg and a dose of 75 mg/kg.
Male rats were euthanized at 1, 4 and 8 hours after intragastric administration of compound 1, and eye tissues from 2 eyes of each rat were combined and the concentration of compound in the retina and choroid/sclera was measured.
The LC-MS/MS method was used to determine the content of the test compound in the eye tissues of rats after intragastric administration. The linear range of the method was from 2.00 to 6000 nmol/L; the eye tissue concentration data are presented in Table 3, in which each eye tissue concentration data was obtained from the combined left and right eyes of 2 rats.

[3] = oral 75 mg/kg, 48 hours after modeling
[4] = oral 75 mg/kg, 72 hours after modeling

Compound: COc1ccc(F)c(CNC(=O)c2cn(Cc3ccc(Cn4cc(F)ccc4=O)c(F)c3)nc2C2COC2)c1F [Compound 8]
- relief rate of retinal thickening [1, 3]: 84%
- relief rate of retinal thickening [1, 4]: 116%

Compound: COc1ccc(F)c(CNC(=O)c2cn(Cc3ccc(Cn4cc(F)ccc4=O)cc3)nc2C2COC2)c1F [Compound 1]
- AUC0-8h Choroid and sclera [2]: 2803 nmol·h/kg
- Concentration of compound in Choroid and sclera ([2]; 1 hour): 640 nmol/kg
- Concentration of compound in Retina ([2]; 1 hour): 90.8 nmol/kg
- Concentration of compound in Choroid and sclera ([2]; 4 hours): 450 nmol/kg
- Concentration of compound in Retina ([2]; 4 hours): 147 nmol/kg
- Concentration of compound in Choroid and sclera ([2]; 8 hours): 82 nmol/kg
- concentration at 1 h ([2]; male, SD, plasma, oral, 1 hour, read-out: Concentration of compound in Plasma): 3.69 µM
- concentration at 4 h ([2]; male, SD, plasma, oral, 4 hours, read-out: Concentration of compound in Plasma): 6.44 µM
- concentration at 8 h ([2]; male, SD, plasma, oral, 8 hours, read-out: Concentration of compound in Plasma): 0.729 µM
- AUC(0-t) ([2]; male, SD, plasma, po, read-out: AUC0-8h Plasma): 22 µM·h
- relief rate of retinal thickening ([1]; oral 50 mg/kg, 48 hours after modeling): 19%
- relief rate of retinal thickening ([1]; oral 50 mg/kg, 72 hours after modeling): 79%
- relief rate of retinal thickening [1, 3]: 100%
- relief rate of retinal thickening [1, 4]: 100%
